The record followed here is patent publication US7601744B2, “Benzothiadiazolylphenylalkylamine derivatives and methods of their use” (Wyeth, priority 2005, dated 2009).

For this experiment, the target named is T1, hNET (Homo sapiens, UniProt P23975).
T1 construct: expressed in transfected cells
Put plainly: Norepinephrine (NE) uptake assay in MDCK-Net6 cells. Format: cell-based. Conditions: [3H]NE uptake. As to the method:
MDCK-Net6 cells, stably transfected with human hNET (Pacholczyk, T., R. D. Blakely, and S. G. Amara, Nature, 1991, 350(6316): p. 350-4) were cultured in growth medium containing high glucose DMEM (Gibco, Cat. No. 11995), 10% FBS (dialyzed, heat-inactivated, US Bio-Technologies, Lot FBD1129HI) and 500 µg/ml G418 (Gibco, Cat. No. 10131). Cells were plated at 300,000/T75 flask and cells were split twice weekly. The JAR cell line (human placental choriocarcinoma) was purchased from ATCC (Cat. No. HTB-144). The cells were cultured in growth medium containing RPMI 1640 (Gibco, Cat. No. 72400), 10% FBS (Irvine, Cat. No. 3000), 1% sodium pyruvate (Gibco, Cat. No. 1136) and 0.25% glucose. Cells were plated at 250,000 cells/T75 flask and split twice weekly. For all assays, cells were plated in Wallac 96-well sterile plates (PerkinElmer, Cat. No. 3983498)
On day 1, cells were plated at 3,000 cells/well in growth medium and maintained in a cell incubator (37° C., 5% CO2). On day 2, growth medium was replaced with 200 μl of assay buffer (25 mM HEPES; 120 mM NaCl; 5 mM KCl; 2.5 mM CaCl2; 1.2 mM MgSO4; 2 mg/ml glucose (pH 7.4, 37° C.)) containing 0.2 mg/ml ascorbic acid and 10 μM pargyline. […] The plates were counted in a Wallac Microbeta counter (PerkinElmer) to collect the raw cpm data. […]

Structures are written as SMILES. Structures can show the parent of a compound that is named as a salt.

T1 sequence (P23975 whole entry): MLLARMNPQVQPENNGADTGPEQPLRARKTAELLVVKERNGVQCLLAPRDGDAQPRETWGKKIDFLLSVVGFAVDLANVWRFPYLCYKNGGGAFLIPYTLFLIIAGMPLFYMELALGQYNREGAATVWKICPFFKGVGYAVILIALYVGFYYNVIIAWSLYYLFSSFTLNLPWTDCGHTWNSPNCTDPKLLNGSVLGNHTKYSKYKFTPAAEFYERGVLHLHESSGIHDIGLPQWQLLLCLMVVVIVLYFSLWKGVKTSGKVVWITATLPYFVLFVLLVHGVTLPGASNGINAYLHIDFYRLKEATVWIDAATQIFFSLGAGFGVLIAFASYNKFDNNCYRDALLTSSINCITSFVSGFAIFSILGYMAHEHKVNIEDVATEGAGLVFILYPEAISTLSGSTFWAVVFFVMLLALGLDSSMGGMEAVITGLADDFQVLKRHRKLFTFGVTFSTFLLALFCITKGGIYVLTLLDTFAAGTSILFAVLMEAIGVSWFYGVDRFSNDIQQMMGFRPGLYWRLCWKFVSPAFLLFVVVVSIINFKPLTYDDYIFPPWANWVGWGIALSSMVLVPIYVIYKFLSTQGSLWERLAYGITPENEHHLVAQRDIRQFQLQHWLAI

The inhibition is the percentage by which the read-out fell short of the control. Higher therefore signals a response far below the control. Take `CNCC[C@@H](c1ccccc1)N1c2ccccc2N(C)S1(=O)=O` [Example 5, (3S)-N-methyl-3-(3-methyl-2,2-dioxido-2,1,3-benzothiadiazol-1(3H)-yl)-3-phenylpropan-1-amine hydrochloride]: testing at 6 µM gave an inhibition of 33%.
